{"source": "paper PMC4979060", "about": "“Structural basis of metallo-β-lactamase, serine-β-lactamase and penicillin-binding protein inhibition by cyclic boronates” (Nature Communications, 2016)", "key": {"VIM-2": {"molecular_target": "T1, VIM-2 (Escherichia coli, UniProt Q5U7L7)", "T1 construct": "made in house; host or cells: E. coli", "assay": "Fluorogenic β-lactamase inhibition assay (FC-5 substrate), VIM-2", "type": "biochemical", "protocol": "(§1) Kinetic and inhibition analyses, and ^19F NMR studies[10] against bacterial β-lactamases were performed as described. The FC-5 cephalosporin[9] was used as substrate for BcII, VIM-2, IMP-1, NDM-1, SPM-1, TEM-1 and OXA-10, meropenem[28] for CphA and nitrocefin[34] for PBP 3 and PBP 5.\n(§2) In brief IC50 values were determined by preincubation of the appropriate amount of enzyme with the cyclic boronates in the assay buffers for 10 min at room temperature prior to the initiation of the assay by the addition of the appropriate substrate. The enzyme concentrations used are the following: 1 nM BcII, 100 nM VIM-2, 10 nM IMP-1, 10 nM NDM-1, 1 nM SPM-1, 1 nM TEM-1, 1 nM OXA-10, 2.5 nM CphA, 4 μM PBP 3 and 5 μM PBP 5; note that the final concentrations are stated. The assay buffers used are the following: 50 mM HEPES, pH 7.2 supplemented with 1 μg BSA, 1 μg ZnSO4 and 0.01% Triton for BcII, VIM-2, IMP-1, NDM-1 and SPM-1, 15 mM MES, pH 6.5 for CphA, 50 mM HEPES, pH 7.2 supplemented with 200 mM NaCl and 0.01% Triton 100 for TEM-1, 100 mM sodium phosphate, pH 7.2 supplemented with 50 mM NaHCO3 and 0.01% Triton 100 for OXA-10 and 50 mM HEPES, pH 7.2 supplemented with 200 mM NaCl and 0.01% Triton 100 for PBP 3 and PBP 5. The amount of substrates used is the following: 5 μM for BcII, VIM-2, IMP-1, NDM-1 and SPM-1, 10 μM for TEM-1 and OXA-10, 125 μM for CphA and 25 μM for PBP 3 and PBP 5; note that the final concentrations are stated.\n(§3) The experiments were performed using a PHERAstar FS microplate reader (BMG Labtech) at room temperature (24–25 °C). All enzymes and inhibitors were prepared in the specific assay buffer. The kinetic values in this study are the means from at least three independent measurements; at least nine different concentrations of the inhibitor were used to determine the kinetic parameters (IC50). The IC50 values were determined using the software package Graph Prism 5."}, "CphA": {"molecular_target": "T2, CphA (Aeromonas hydrophila, UniProt P26918)", "T2 construct": "made in house; host or cells: E. coli", "T2 sequence (P26918 28-254)": "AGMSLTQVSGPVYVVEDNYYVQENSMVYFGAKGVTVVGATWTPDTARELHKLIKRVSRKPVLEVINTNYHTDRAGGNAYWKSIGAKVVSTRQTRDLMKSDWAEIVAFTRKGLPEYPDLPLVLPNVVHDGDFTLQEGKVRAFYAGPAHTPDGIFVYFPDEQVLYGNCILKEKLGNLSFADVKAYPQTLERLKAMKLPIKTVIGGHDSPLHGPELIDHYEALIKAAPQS", "assay": "B2 MBL inhibition assay (meropenem substrate), CphA", "type": "biochemical, Aeromonas hydrophilia", "protocol": "as §1, §2, §3"}, "PBP 5 (dacA)": {"molecular_target": "T3, PBP 5 (dacA) (Escherichia coli, UniProt P0AEB2)", "T3 construct": "made in house; host or cells: E. coli", "T3 sequence (P0AEB2 30-403)": "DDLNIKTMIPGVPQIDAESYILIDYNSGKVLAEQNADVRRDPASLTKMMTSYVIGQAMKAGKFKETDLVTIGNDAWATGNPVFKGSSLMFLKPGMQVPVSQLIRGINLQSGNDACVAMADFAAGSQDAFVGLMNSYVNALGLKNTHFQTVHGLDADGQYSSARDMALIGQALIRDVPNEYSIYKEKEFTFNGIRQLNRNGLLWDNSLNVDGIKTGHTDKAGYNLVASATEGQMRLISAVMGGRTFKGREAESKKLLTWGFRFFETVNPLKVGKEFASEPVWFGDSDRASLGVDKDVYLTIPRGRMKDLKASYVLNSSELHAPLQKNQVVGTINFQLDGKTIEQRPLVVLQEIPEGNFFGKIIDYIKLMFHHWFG", "assay": "PBP inhibition assay (nitrocefin substrate), PBP 5", "type": "biochemical", "protocol": "as §1\nIn brief IC50 values were determined by preincubation of the appropriate amount of enzyme with the cyclic boronates in the assay buffers for 10 min at room temperature prior to the initiation of the assay by the addition of the appropriate substrate. The enzyme concentrations used are the following: 1 nM BcII, 100 nM VIM-2, 10 nM IMP-1, 10 nM NDM-1, 1 nM SPM-1, 1 nM TEM-1, 1 nM OXA-10, 2.5 nM CphA, 4 μM PBP 3 and 5 μM PBP 5; note that the final concentrations are stated. […]\nThe experiments were performed using a PHERAstar FS microplate reader (BMG Labtech) at room temperature (24–25 °C). […] The IC50 values were determined using the software package Graph Prism 5."}, "NDM-1": {"molecular_target": "T4, NDM-1 (Klebsiella pneumoniae, UniProt C7C422)", "T4 construct": "made in house; host or cells: E. coli", "T4 sequence (C7C422 29-270, looked up, species assumed)": "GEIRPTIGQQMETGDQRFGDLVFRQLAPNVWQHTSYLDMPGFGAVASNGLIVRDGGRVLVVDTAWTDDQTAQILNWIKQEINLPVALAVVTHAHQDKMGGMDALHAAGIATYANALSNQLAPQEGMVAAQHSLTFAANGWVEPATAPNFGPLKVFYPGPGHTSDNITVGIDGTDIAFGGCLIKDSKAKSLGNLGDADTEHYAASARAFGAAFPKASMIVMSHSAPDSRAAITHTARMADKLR", "assay": "Fluorogenic β-lactamase inhibition assay (FC-5 substrate), NDM-1", "type": "biochemical", "protocol": "as §1, §2, §3"}, "K. pneumoniae IR8": {"tested_on": "K. pneumoniae IR8", "assay": "microbe, parasite or virus in culture", "type": "cell-based", "conditions": "Klebsiella pneumoniae; 2 alone; K. pneumoniae IR8 (blaSHV-1; blaDHA-1; blaCTX-M-15; blaTEM-1; blaNDM-1); read-out: 2 MIC", "from_the_text": "Bacterial strains: E. coli ATCC 25922 (ref. [35]) and K. pneumoniae NCTC 5055 (ref. [36]) were used as reference strains. K. pneumoniae Ecl8 (ref. [16]) and its ramR knock-out[37] were used as previously described. K. pneumoniae strain IR8 (ref. [40]), and E. coli strains IR10 and IR60 (ref. [17]) were generous gifts of Prof. T.R. Walsh. Plasmid pSU18:NDM-1 contains the complete blaNDM-1 open reading frame, together with its promoter, cloned into plasmid pSU18 (ref. [41]). The recombinant plasmid was made by PCR amplifying the blaNDM-1 gene and surrounding sequences from E. coli IR10 with primers NDM1F 5′- […] -3′ and NDM1R 5′- GGCGATGACAGCATCATC -3′, TA cloning the amplicon into pCR2.1 TOPO (Invitrogen) and subcloning into pSU18 using BamHI and XbaI.\nMIC values were determined by broth microdilution, in triplicate, in cation-adjusted Mueller Hinton broth (Sigma) according to the Clinical Laboratory Standards Institute (CLSI) guidelines. Experiments were carried out in microtitre plates (Corning) containing the medium plus meropenem (Sequoia Research Products, Pangbourne, UK) and/or inhibitor 2 as appropriate. Chloramphenicol (20 μg ml^−1) was included in assays of strains (K. pneumoniae Ecl8 and derivative) that carried pSU18 plasmids or derivatives (pSU18:NDM-1) to ensure maintenance of plasmids throughout. Inhibitor 2 was dissolved in DMSO to 100 mg ml^−1 and diluted in broth. The final concentration of DMSO in the assays was kept constant at 0.01% (experiments using 10 μg ml^−1 inhibitor) or 0.03% (experiments using 25 μg ml^−1 inhibitor). Plates were incubated overnight at 37 °C for 18–24 h and absorbance at 600 nm read using a Polarstar Omega (BMG LabTech) plate reader."}, "M67C NDM-1": {"molecular_target": "M67C NDM-1 (Klebsiella pneumoniae, UniProt C7C422, M67C)", "sequence (C7C422 29-270 M67C)": "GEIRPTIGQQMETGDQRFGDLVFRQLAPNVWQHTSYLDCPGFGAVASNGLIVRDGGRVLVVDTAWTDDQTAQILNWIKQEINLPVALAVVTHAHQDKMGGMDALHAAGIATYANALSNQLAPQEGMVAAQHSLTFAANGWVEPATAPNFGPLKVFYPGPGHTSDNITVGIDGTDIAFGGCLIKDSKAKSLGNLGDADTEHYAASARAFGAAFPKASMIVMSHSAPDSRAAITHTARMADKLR", "assay": "19F-protein NMR binding study", "conditions": "M67C NDM-1 labelled with 1,1,1-trifluoro-3-bromo acetone", "protocol": "as §1\nSupplementary Fig. 1. 19F NMR analyses of the NDM-1*-di-Zn(II)-2 complex. Titration using 2 gave rise to a new signal corresponding to a 2-NDM-1* complex, even at low concentrations of 2 indicating tight binding; at a 1:1, enzyme:inhibitor ratio (NDM-1*:2) no signals corresponding to uncomplexed NDM-1* species were observed. NDM-1* = NDM-1 M67C variant modified by reaction with BrCH COCF 1.\nSupplementary Fig. 2. Cytotoxicity of 1,2 and Staurosporine (a control) using HEK293 cells.\n(also on this page, place not known: enzyme: inhibitor NDM -1 BrCH2COCF3 -2 -1 0 1 0.5 1.0 1.5 - Log concentration (µM) Abs 490 HEK293 - 2 HEK293 - 1 Staurosporine HEK293) […]"}, "TEM-1": {"molecular_target": "T5, TEM-1 (Escherichia coli, UniProt P62593)", "T5 construct": "made in house; host or cells: E. coli", "T5 sequence (P62593 24-286 limits assumed)": "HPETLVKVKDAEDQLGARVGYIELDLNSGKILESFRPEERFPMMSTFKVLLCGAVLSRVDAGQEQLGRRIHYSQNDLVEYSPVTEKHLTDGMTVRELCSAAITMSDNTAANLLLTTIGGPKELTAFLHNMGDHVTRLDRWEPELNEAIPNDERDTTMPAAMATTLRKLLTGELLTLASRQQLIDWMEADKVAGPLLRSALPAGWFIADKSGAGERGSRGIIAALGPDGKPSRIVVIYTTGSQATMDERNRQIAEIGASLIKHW", "assay": "Fluorogenic β-lactamase inhibition assay (FC-5 substrate), TEM-1", "type": "biochemical", "protocol": "as §1, §2, §3"}}, "data": [{"molecule": "NCc1ccc(C(=O)N[C@H]2Cc3cccc(C(=O)O)c3O[B-]2(O)O)cc1", "note": "[compound 2]", "values": [{"measurement": "pIC50", "setting": "VIM-2", "result": 8.5}, {"measurement": "IC50", "setting": "VIM-2; 10 min preincubation", "result": 3, "unit": "nM"}, {"measurement": "pIC50", "setting": "CphA", "result": "> 4"}, {"measurement": "IC50", "setting": "CphA; 10 min preincubation", "result": "> 100", "unit": "µM"}, {"measurement": "pIC50", "setting": "PBP 5 (dacA)", "result": 8.7}, {"measurement": "IC50", "setting": "PBP 5 (dacA); 10 min preincubation", "result": 1.6, "unit": "nM"}, {"measurement": "pIC50", "setting": "NDM-1", "result": 7.5}, {"measurement": "IC50", "setting": "NDM-1; 10 min preincubation", "result": 29, "unit": "nM"}, {"measurement": "MIC", "setting": "K. pneumoniae IR8", "result": "> 128", "unit": "µg/mL"}, {"measurement": "binding to the active site by 19F NMR titration", "setting": "M67C NDM-1", "result": "tight binding"}, {"measurement": "pIC50", "setting": "TEM-1", "result": 8.4}, {"measurement": "IC50", "setting": "TEM-1; 10 min preincubation", "result": 3, "unit": "nM"}]}]}
